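Assay format: 96-well plates, 48-hour exposure. The concentration for 50% growth inhibition is given as GI50.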 Calls of active or inactive are those of the source. No stated cut-off is given here; in the data, active = GI50 up to about 1.1 µM and inactive = higher.

Holding throughout (assay): NCI anticancer screen, dose series, 48 h
Test [1] has as its system CCRF-CEM.
Test [2] relates to SF-268.
The subject of test [3] is NCI/ADR-RES.
The test system of test [4] is BT-549.
Test [5] has as its system MDA-N.
The subject of test [6] is DU-145.
The subject of test [7] is TK-10.
Test [8] concerns HOP-62.
Test [9] deals with MCF7.
Test [10] concerns SK-OV-3.
In test [11] the test system is A549.
Test [12] deals with EKVX.
Test [13] has as its system SK-MEL-28.
The test system of test [14] is SW-620.
In test [15] the test system is LOX IMVI.
Test [16] relates to 786-0.
Test [17] relates to SF-295.
In test [18] the test system is MOLT-4.
The test system of test [19] is SN12C.
The test system of test [20] is SR.

With `CC1CNC(c2ccc(CN3CCC(CCCC4CCN(Cc5ccc(C6=NC(C)CN6)cc5)CC4)CC3)cc2)=N1` (stereo not given), the GI50 in [1] is 19.5 µM (inactive); in test [2], > 100 µM (inactive); in test [3], > 100 µM (inactive); in test [4] it was > 100 µM (inactive); in test [5] it was 17.5 µM (inactive); in test [6], 45.8 µM (inactive). The GI50 in [7] was 75.3 µM (inactive); in test [8], 32.2 µM (inactive); in test [9], 19.8 µM (inactive); in test [10], 25.5 µM (inactive); in [11] it was 66.1 µM (inactive); in test [12], 32.2 µM (inactive). For the same compound, the GI50 in test [13] is > 100 µM (inactive); in test [14] it was 30.5 µM (inactive); in test [15], 82.4 µM (inactive); in test [16], > 100 µM (inactive); in [17] it was > 100 µM (inactive); in [18] it was 19.4 µM (inactive). Besides, the GI50 in test [19] was 84.7 µM (inactive).
For the compound `CCOC(=O)c1c(-c2ccccc2)oc(=O)c(Cc2cccc3cccnc23)c1-c1ccccc1`, the GI50 in test [1], in [2], in [3], in test [4], in test [6] and in test [7] was > 10 µM (inactive) throughout. Besides, the GI50 in test [8], in test [9], in test [10], in [11], in test [12] and in test [13] was > 10 µM (inactive) in each case. Also, the GI50 in [14], in test [20], in test [15], in test [16], in [17] and in [18] was > 10 µM (inactive) each time. Besides, the GI50 in test [19] is > 10 µM (inactive).
As for `C[C@@H]1C[C@H]2[C@@H]3CCC4=CC(=O)C=C[C@]4(C)[C@@]3(Cl)[C@@H](Cl)C[C@]2(C)[C@@]1(O)C(=O)COP(=O)(O)O`, the GI50 is > 100 µM (inactive) in [2]; 52.1 µM (inactive) in [4]; 56.2 µM (inactive) in test [5]; > 100 µM (inactive) in test [6]; > 100 µM (inactive) in test [7]; > 100 µM (inactive) in [8]. For the same compound, the GI50 in test [9], in [10], in test [11], in test [12], in [13] and in test [14] was > 100 µM (inactive) each time. The GI50 in test [20] was 11.4 µM (inactive); in [15] it was > 100 µM (inactive); in test [16], 49.3 µM (inactive); in test [17], > 100 µM (inactive); in test [18] it was 22 µM (inactive); in [19], 17.6 µM (inactive).
Consider `Cc1ccc(-c2cc(-c3ccc(Cl)cc3)nc(/N=C3\C(=O)N(CN(C)C)c4ccccc43)n2)cc1`, for which the GI50 in test [1] is 14.9 µM (inactive); in [2], 89.9 µM (inactive); in test [3], 43.5 µM (inactive); in test [4], 78.5 µM (inactive); in test [5] it was 19.4 µM (inactive); in test [6], 31.7 µM (inactive). In addition, the GI50 was 85.3 µM (inactive) in test [7]; 81.5 µM (inactive) in [8]; 37.3 µM (inactive) in test [9]; > 100 µM (inactive) in [10]; 89.1 µM (inactive) in test [11]; > 100 µM (inactive) in [12]. Moreover, the GI50 in test [13] is > 100 µM (inactive); in test [14] it was 12.9 µM (inactive); in test [15] it was 24.2 µM (inactive); in test [16] it was 54.6 µM (inactive); in [17], > 100 µM (inactive); in test [18], 11.5 µM (inactive). Moreover, in test [19], the GI50 was > 100 µM (inactive).
As to `c1ccc(-c2cn3nc(N4CCOCC4)sc3n2)cc1`, the GI50 in test [1], in test [2], in test [3], in test [4], in test [6] and in [7] was > 100 µM (inactive) each time. In addition, the GI50 in test [8] is 53.7 µM (inactive); in [9] it was > 100 µM (inactive); in test [10], > 100 µM (inactive); in test [11], > 100 µM (inactive); in test [12], > 100 µM (inactive); in test [13], > 100 µM (inactive). Besides, the GI50 is > 100 µM (inactive) in test [14]; 37.4 µM (inactive) in test [16]; > 100 µM (inactive) in test [17]; > 100 µM (inactive) in test [18]; 8.49 µM (inactive) in test [19].
Regarding `CC(=O)OCc1cc2ccccc2nc1C(Br)(Br)Br`, the GI50 is 10.9 µM (inactive) in test [1]; 17.8 µM (inactive) in test [2]; 17.1 µM (inactive) in test [3]; 10.4 µM (inactive) in [4]; 4.59 µM (inactive) in test [6]; 16.1 µM (inactive) in [7]. The GI50 in test [8] is 26.1 µM (inactive); in test [9], 14.7 µM (inactive); in [10], 28.3 µM (inactive); in test [11], 16.4 µM (inactive); in test [12] it was 19.1 µM (inactive); in test [13], 17.9 µM (inactive). The GI50 in test [14] is 18.7 µM (inactive); in test [20], 1.46 µM (inactive); in test [15], 11.1 µM (inactive); in test [16] it was 19.4 µM (inactive); in test [17], 16.4 µM (inactive); in [18], 9.02 µM (inactive). The GI50 in [19] is 13.2 µM (inactive).
For the compound `COc1cc(OC)c(/C=C\c2ccnc3ccccc23)c(OC)c1`, the GI50 is 1.7 µM (inactive) in test [1]; 5.97 µM (inactive) in [2]; 2.07 µM (inactive) in test [3]; 0.329 µM (active) in [5]; 5.37 µM (inactive) in test [6]; 4.61 µM (inactive) in test [7]. In addition, the GI50 in test [8] was 5.19 µM (inactive); in test [9], 0.569 µM (active); in [10] it was 6.44 µM (inactive); in [11] it was 4.13 µM (inactive); in test [12] it was 4.65 µM (inactive); in [13], 5.37 µM (inactive). Also, the GI50 in test [14] was 3.62 µM (inactive); in [20], 0.689 µM (active); in [15], 2.73 µM (inactive); in test [16], 5.53 µM (inactive); in test [17] it was 2.53 µM (inactive); in test [18], 3.56 µM (inactive). The GI50 in test [19] is 4.71 µM (inactive).
On to `C(=N\c1ccc(-c2nc3ccccc3s2)cc1)/c1ccco1`, for which the GI50 in test [1] is 37.6 µM (inactive); in test [2], 48.2 µM (inactive); in test [3], 60.8 µM (inactive); in [4], 83.4 µM (inactive); in test [5] it was 72.9 µM (inactive); in [6] it was > 100 µM (inactive). The GI50 was 2 µM (inactive) in [7]; 30.4 µM (inactive) in [8]; 83.8 µM (inactive) in test [10]; 56.6 µM (inactive) in [11]; 37.2 µM (inactive) in test [12]; > 100 µM (inactive) in [13]. The GI50 in test [14] is > 100 µM (inactive); in [20] it was 50.2 µM (inactive); in [15], 54.1 µM (inactive); in [16], 83 µM (inactive); in test [17] it was 18.9 µM (inactive); in test [18], 29 µM (inactive). Moreover, the GI50 in [19] was 75.2 µM (inactive).
With `Cc1ccc2c(c1)-c1nc(N)c(C#N)c(-c3ccc(Cl)cc3)c1CCS2(=O)=O`, the GI50 in test [1] is 20.7 µM (inactive); in test [2], 67.6 µM (inactive); in test [3] it was 36.2 µM (inactive); in test [4], 49 µM (inactive); in [5], 39.3 µM (inactive); in test [6] it was 53.8 µM (inactive). In addition, the GI50 was 66.4 µM (inactive) in test [7]; 34.8 µM (inactive) in test [11]; 48.9 µM (inactive) in test [13]; 46 µM (inactive) in test [14]; 24.5 µM (inactive) in test [20]; 35.8 µM (inactive) in test [15]. Moreover, the GI50 was 40.6 µM (inactive) in test [16] and 55.7 µM (inactive) in test [19].
On to `CCOC(=O)c1cc2c(=Cc3ccc(N(C)C)cc3)c3ccccc3n2[n+]1C`, for which the GI50 in test [2] is 3.21 µM (inactive); in test [3], > 100 µM (inactive); in test [4], 0.577 µM (active); in [5], 1.23 µM (inactive); in [6] it was 1.38 µM (inactive); in test [7], 7.67 µM (inactive). Also, the GI50 is < 0.01 µM (active) in test [8]; 2.34 µM (inactive) in [9]; 3.94 µM (inactive) in test [10]; 3.71 µM (inactive) in test [11]; 4.97 µM (inactive) in test [12]; 1.53 µM (inactive) in test [13]. The GI50 in test [14] is 0.637 µM (active); in test [15], 1.47 µM (inactive); in test [16], 1.93 µM (inactive); in [17] it was 3.72 µM (inactive); in [18], 1.9 µM (inactive); in test [19], < 0.01 µM (active).
In the case of `Cc1cc(C)nc(NS(=O)(=O)c2ccc(NC(=O)c3ccc4nc5ccccc5c(Nc5ccc(S(N)(=O)=O)cc5)c4c3)cc2)n1`, the GI50 in [1] was 28.2 µM (inactive); in test [2], > 100 µM (inactive); in test [3], > 100 µM (inactive); in [4], 28.2 µM (inactive); in [6], > 100 µM (inactive); in [7] it was > 100 µM (inactive). The GI50 in [8] was > 100 µM (inactive); in [9], 49.2 µM (inactive); in test [10], > 100 µM (inactive); in test [11], > 100 µM (inactive); in test [12], > 100 µM (inactive); in test [13] it was 86.7 µM (inactive). Also, the GI50 is > 100 µM (inactive) in test [14]; 40.1 µM (inactive) in test [20]; 45.6 µM (inactive) in test [15]; > 100 µM (inactive) in test [16]; > 100 µM (inactive) in [17]; 50.6 µM (inactive) in [18]. For the same compound, the GI50 in test [19] is > 100 µM (inactive).

The record behind these values is ChEMBL document CHEMBL1201862, “PubChem BioAssay data set” (2004).
